Source: patent US12016864B2, “LOX enzyme inhibiting methods and compositions” (ANOVIA BIOSCIENCES, INC., priority 2021, dated 2024)

target: T1, Recombinant human LOXL2 (lysyl oxidase like 2) (Homo sapiens, UniProt Q9Y4K0); experiment: LOXL2 inhibition assay, fluorometric (cadaverine / HRP / Amplex Red); assay type: biochemical; conditions: recombinant human LOXL2 130 nM; 30 min preincubation at 37° C.; 2.5 mM cadaverine; read-out: Activity Range LOXL2
T1 construct: purchased R&D systems
T1 sequence (Q9Y4K0 26-774): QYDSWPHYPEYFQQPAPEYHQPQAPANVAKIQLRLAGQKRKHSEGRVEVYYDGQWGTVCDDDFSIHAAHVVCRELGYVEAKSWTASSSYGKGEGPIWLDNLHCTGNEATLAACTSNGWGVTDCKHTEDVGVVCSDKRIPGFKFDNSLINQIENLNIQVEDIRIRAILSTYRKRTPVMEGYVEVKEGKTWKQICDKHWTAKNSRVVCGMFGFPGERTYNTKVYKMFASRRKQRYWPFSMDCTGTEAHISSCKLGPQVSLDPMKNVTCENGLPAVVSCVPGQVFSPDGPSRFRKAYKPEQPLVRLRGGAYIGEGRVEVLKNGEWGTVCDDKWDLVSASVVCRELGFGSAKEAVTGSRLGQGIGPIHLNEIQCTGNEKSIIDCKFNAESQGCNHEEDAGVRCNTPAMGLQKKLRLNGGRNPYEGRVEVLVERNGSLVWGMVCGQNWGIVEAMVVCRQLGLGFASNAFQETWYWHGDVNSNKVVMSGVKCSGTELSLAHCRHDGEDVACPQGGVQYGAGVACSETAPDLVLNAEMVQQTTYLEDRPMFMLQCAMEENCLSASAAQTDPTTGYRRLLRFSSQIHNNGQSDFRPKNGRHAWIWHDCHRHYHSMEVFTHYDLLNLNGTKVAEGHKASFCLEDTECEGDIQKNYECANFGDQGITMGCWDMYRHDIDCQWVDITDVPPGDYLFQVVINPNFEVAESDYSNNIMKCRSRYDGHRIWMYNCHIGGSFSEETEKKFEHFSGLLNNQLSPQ
Procedure: The ability of compounds to inhibit one or more of the lysyl oxidases LOXL2 and/or LOXL3 was determined using a fluorometric assay. This assay measures the activity of lysyl oxidases by coupling the reaction with horseradish peroxidase-catalyzed […]. The activity assay protocol uses cadaverine as substrate that releases hydrogen peroxide upon transformation by the specific LOX family enzyme present in the sample. Hydrogen peroxide is in turn detected using a red fluorescence substrate for HRP-coupled reactions (Amplex Red Enzyme Assays, Thermo Scientific Fisher). This leads to increase in fluorescence that can be easily detected at Ex/Em=540/590 nm in a fluorescence microplate reader.
Recombinant human LOXL2 (lysyl oxidase like 2) and recombinant human LOXL3 (lysyl oxidase like 3) were purchased from R&D systems and assays were performed in 1.2 M urea, 50 mM sodium borate buffer pH 8.0, and 10 mM CaCl.
5 μl of freshly prepared reaction buffer were delivered to reaction wells. Compounds were resuspended in 100% DMSO at 10 mM and delivered into buffer using acoustic technology (Echo550; nanoliter range). A 3× solution of LOXL2 or LOXL3 in reaction buffer was prepared (“enzyme solution”) and 5 μL of enzyme solution was added into the reaction wells. Buffer only was added to column 1 for no protein control. Reactions were incubated for 30 minutes at 37° C. A 3× mixture of cadaverine, Amplex Red, and HRP (“Substrate/Detection Mix) was prepared and subsequently 5 μL of the mixture added to each reaction well. Progress of reactions was monitored for 60 minutes at 37° C. using Clariostar plate reader (ex 530-12, ems 600-40). For all activity assays, pan-LOX inhibitor CCT365623 (Tang et al, 2017) and LOXL2/LOXL3 inhibitor PAT-1251 (PharmaKea) were included as standards.
For the data analysis, the slope of the linear portion of the progress curve was calculated using Clariostar software. Typical analysis interval was between 8-30 min, but varied between experiments. The background-subtracted signals (No protein wells are considered as background) were converted to % activity relative to DMSO controls. Data was analyzed using GraphPad Prism 4 with “sigmoidal dose-response (variable slope)”; 4 parameters with Hill Slope. Constraints: Bottom=Constant equal to 0. Top=Must be less than 120.

Compound	IC50
NCc1ccnc(S(=O)(=O)C[C@@H]2C[C@H](c3ccccc3F)CN2S(=O)(=O)N2CCS(=O)(=O)CC2)c1 (racemic) [Example 205, cis-4-((2-(((4-(Aminomethyl)pyridin-2-yl)sulfonyl)methyl)-4-(2-fluorophenyl)pyrrolidin-1-yl)sulfonyl)thiomorpholine 1,1-dioxide 2,2,2-trifluoroacetate]	≤ 500 nM
NCc1ccc(S(=O)(=O)C[C@@H]2C[C@H](c3ccccc3F)CN2S(=O)(=O)N2CCS(=O)(=O)CC2)s1 (racemic) [Example 209, cis-4-((2-(((5-(Aminomethyl)thiophen-2-yl)sulfonyl)methyl)-4-(2-fluorophenyl)pyrrolidin-1-yl)sulfonyl)thiomorpholine 1,1-dioxide 2,2,2-trifluoroacetate]	≤ 500 nM
NCc1ccnc(OC[C@@H]2C[C@H](c3ccccc3F)CN2S(=O)(=O)N2CCOCC2)c1 (racemic) [Example 211, cis-(2-((4-(2-Fluorophenyl)-1-(morpholinosulfonyl)pyrrolidin-2-yl)methoxy)pyridin-4-yl)methanamine; trifluoroacetic acid]	≤ 500 nM
NCc1ccnc(OC[C@@H]2C[C@H](c3ccccc3F)CN2S(=O)(=O)N2CCS(=O)(=O)CC2)c1 (racemic) [Example 213, cis-4-((2-(((4-(Aminomethyl)pyridin-2-yl)oxy)methyl)-4-(2-fluorophenyl)pyrrolidin-1-yl)sulfonyl)thiomorpholine 1,1-dioxide 2,2,2-trifluoroacetate]	≤ 500 nM
NCc1cccc(OC[C@@H]2C[C@H](c3ccccc3F)CN2S(=O)(=O)N2CCOCC2)c1 (racemic) [Example 215, cis-(3-((4-(2-Fluorophenyl)-1-(morpholinosulfonyl)pyrrolidin-2-yl)methoxy)phenyl)methanamine]	500 to 1000 nM
NCc1cccc(OC[C@@H]2C[C@H](c3ccccc3F)CN2S(=O)(=O)N2CCS(=O)(=O)CC2)c1 (racemic) [Example 217, cis-4-((2-((3-(Aminomethyl)phenoxy)methyl)-4-(2-fluorophenyl)pyrrolidin-1-yl)sulfonyl)thiomorpholine 1,1-dioxide 2,2,2-trifluoroacetate]	500 to 1000 nM
NCc1ccnc(S(=O)(=O)C[C@@H]2C[C@H](c3ccccc3)CN(S(=O)(=O)N3CCOCC3)C2)c1 (racemic) [Example 219, cis-(2-(((1-(Morpholinosulfonyl)-5-phenylpiperidin-3-yl)methyl)sulfonyl)pyridin-4-yl)methanamine 2,2,2-trifluoroacetate]	≤ 500 nM
NCc1ccnc(S(=O)(=O)C[C@H]2C[C@H](c3ccccc3)CN(S(=O)(=O)N3CCOCC3)C2)c1 (racemic) [Example 219T, trans-(2-(((1-(Morpholinosulfonyl)-5-phenylpiperidin-3-yl)methyl)sulfonyl)pyridin-4-yl)methanamine 2,2,2-trifluoroacetate]	≤ 500 nM
NCc1ccnc(OC[C@@H]2C[C@H](c3ccccc3)CN(S(=O)(=O)N3CCOCC3)C2)c1 (racemic) [Example 220, cis-(2-((1-(Morpholinosulfonyl)-5-phenylpiperidin-3-yl)methoxy)pyridin-4-yl)methanamine 2,2,2-trifluoroacetate]	≤ 500 nM
NCc1cccc(OC[C@@H]2C[C@H](c3ccccc3)CN(S(=O)(=O)N3CCOCC3)C2)c1 (racemic) [Example 221, cis-(3-((1-(Morpholinosulfonyl)-5-phenylpiperidin-3-yl)methoxy)phenyl)methanamine 2,2,2-trifluoroacetate]	≤ 500 nM
NCc1ccc(S(=O)(=O)C[C@@H]2C[C@H](c3ccccc3)CN(S(=O)(=O)N3CCOCC3)C2)s1 (racemic) [Example 222, cis-(5-(((1-(Morpholinosulfonyl)-5-phenylpiperidin-3-yl)methyl)sulfonyl)thiophen-2-yl)methanamine 2,2,2-trifluoroacetate]	≤ 500 nM
